Results on twelve compounds are retold here after US20240294498A1, “FACTOR XIIA INHIBITORS” (Lunac Therapeutics Ltd, priority 2021, published 2024).

SMILES strings stand for the structures. A value given as a limit tells only on which side of the number the result lay.

Format in all cases: biochemical
The target in one test is FXa (Homo sapiens, UniProt P00742). Kind of test: Determination of selectivity: FXa inhibition (chromogenic substrate S2765). As to conditions: fold selectivity for FXIIa over FXa (human); category. Here is the method: (§1) The activities of the compounds of the invention have been determined in vitro using the following assays protocols for the screening of activity of FXIIa and other proteases. Each of these assays were performed in a purified system employing the use of chromogenic assays in microplate plate wells. Chromogenic peptide substrates mimicking natural protein substrates are attached via an amide bond to a chromogenic group. Paranitroaniline (pNA) is released from the peptide following catalyses by the proteolytic enzyme; the absorbance increases and can be monitored at 405 nm.
Sequence of FXa (P00742 235-488 limits assumed): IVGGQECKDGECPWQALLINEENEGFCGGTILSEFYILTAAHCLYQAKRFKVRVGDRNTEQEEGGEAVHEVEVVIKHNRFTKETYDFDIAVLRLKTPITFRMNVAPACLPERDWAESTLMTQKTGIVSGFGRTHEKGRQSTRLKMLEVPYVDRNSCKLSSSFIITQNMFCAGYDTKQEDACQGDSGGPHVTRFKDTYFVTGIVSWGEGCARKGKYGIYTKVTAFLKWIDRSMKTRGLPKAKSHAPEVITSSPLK
Sequence of FXa (P00742 41-179 partner limits assumed): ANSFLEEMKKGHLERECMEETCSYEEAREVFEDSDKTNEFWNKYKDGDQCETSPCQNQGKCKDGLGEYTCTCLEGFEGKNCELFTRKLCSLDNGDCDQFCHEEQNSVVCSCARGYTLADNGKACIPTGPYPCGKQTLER
(§2) All compounds were dissolved in 100% (v/v) DMSO to a stock concentration of 10 mM, the highest concentration of compound used in each assay is 500 μM. The final concentrations of DMSO were 5% (v/v) in 50 mM Tris 137 mM NaCl pH 7.4. Where no test compound was added a final concentration of 5% DMSO was employed.
(§3) To determine selectivity of test compounds, these test compounds were assayed for inhibitory activity against other serine proteases including FXa and thrombin. Essentially compounds at increasing concentrations were incubated with each enzyme: FXa (5 nM) and thrombin (5 nM), for 10 mins at 37° C. followed by the appropriate chromogenic substrate, S2765 (Chromogenix) and GPR (Bachem) respectively in 50 mM Tris, 137 mM NaCl, pH 7.4. Substrates were used at a concentration equal to the appropriate experimentally derived KM. Kinetic readings at 405 nm were monitored every 12 secs for a total duration of 3 hours at 37° C. Gradients of initial rates were determined and employed to calculate IC50 values. Values of IC50 were converted to Ki values based on the formula:
(§4) Ki═IC50/(1+[Substrate]/Km)
(§5) Where [Substrate] denotes the concentration of substrate used in the assay and Km is the determined value of each enzyme with its own substrate.
The fold selectivity for FXIIa over FXa for the compounds of the invention has been categorised based on the fold selectivity values, the categories being “o”, “oo” and “ooo”. The category “o” refers to fold selectivity values less than 10 (e.g. a fold selectivity value of less than 10 and greater than 1). The category “oo” refers to a fold selectivity value of 10 to 100. The category “ooo” refers to fold selectivity values greater than 100.

The target in the next test is T1, thrombin (Homo sapiens, UniProt P00734).
T1 construct: FXa (5 nM) and thrombin (5 nM)
Kind of test: Determination of selectivity: thrombin inhibition (chromogenic substrate GPR). As to conditions: fold selectivity for FXIIa over thrombin (human); category. Here is the method:
as §1, §2, §3, §4, §5
The fold selectivity for FXIIa over thrombin for the compounds of the invention has been categorised based on the fold selectivity values, the categories being “+”, “++” and “+++”. The category “+” refers to fold selectivity values less than 10 (e.g. a fold selectivity value of less than 10 and greater than 1). The category “++” refers to a fold selectivity value of 10 to 100. The category “+++” refers to fold selectivity values greater than 100.

The target in the next test is T2, FXIIa (Homo sapiens, UniProt P00748).
T2 construct: FXIIa alpha
T2 sequence (P00748 373-615 limits assumed): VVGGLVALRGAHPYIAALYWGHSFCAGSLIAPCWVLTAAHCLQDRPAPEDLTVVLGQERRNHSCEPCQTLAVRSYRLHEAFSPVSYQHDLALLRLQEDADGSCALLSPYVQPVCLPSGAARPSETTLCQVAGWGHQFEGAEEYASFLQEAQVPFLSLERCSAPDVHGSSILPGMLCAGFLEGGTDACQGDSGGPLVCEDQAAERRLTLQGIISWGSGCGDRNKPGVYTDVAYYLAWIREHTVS
T2 sequence (P00748 20-372 partner limits assumed): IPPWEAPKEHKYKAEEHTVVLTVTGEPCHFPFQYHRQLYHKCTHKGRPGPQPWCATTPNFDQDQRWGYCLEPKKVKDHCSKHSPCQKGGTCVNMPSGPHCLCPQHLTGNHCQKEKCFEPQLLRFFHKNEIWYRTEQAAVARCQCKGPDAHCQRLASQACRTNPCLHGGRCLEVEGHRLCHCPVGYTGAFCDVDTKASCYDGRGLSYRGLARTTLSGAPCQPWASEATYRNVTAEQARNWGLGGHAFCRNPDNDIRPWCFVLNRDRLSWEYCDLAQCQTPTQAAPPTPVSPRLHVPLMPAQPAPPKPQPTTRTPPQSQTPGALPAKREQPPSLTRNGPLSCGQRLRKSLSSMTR
Kind of test: Determination of Factor XIIa inhibition (chromogenic substrate S-2302). As to conditions: human FXIIa alpha, Ki category. On the procedure: as §1, §2
Factor XIIa activity was measured using a chromogenic substrate S-2302 (Chromogenix). Various concentrations of compound were incubated with 10 nM of FXIIa and incubated at 37° C. for 10 minutes in 50 mM Tris, 137 mM NaCl, pH 7.4, prior to the addition of the chromogenic substrate S-2302 at a concentration equal the to the experimentally derived KM. Kinetic readings at 405 nm were monitored every 12 secs for a total duration of 3 hours at 37° C. Gradients of initial rates were determined and employed to calculate IC50 values.
The activity of the compounds of the invention has been categorised based on the Ki values, the categories being “†”, “*”, “**” and “***”. […] The category “**” refers to compounds with a Ki value of 0.2 μM to 0.8 μM.
as §4, §5

One may read the Ki as a measure of affinity in units of concentration, obtained from inhibition or displacement. Read a high Ki as lower affinity.

Turning to `Cc1ccc(C[C@@H]2C[C@@H](C(=O)NCc3ccc4c(cnn4C)c3)N(C(=O)[C@@H]3NCCC[C@@H]3C(=O)N3CCC4(CC4)C3)C2)cc1` [Example M05766, (2S,4R)-1-[(2R,3S)-3-(5-azaspiro[2.4]heptane-5-carbonyl)piperidine-2-carbonyl]-N-[(1-methylindazol-5-yl)methyl]-4-(p-tolylmethyl)pyrrolidine-2-carboxamide], on FXa, the “FXa (human)/FXIIa alpha (human)” value was “∘∘∘”. Moreover, the “Thrombin (human)/FXIIa alpha (human)” value at thrombin was “+++ (fold selectivity values greater than 100)”. The compound also gave an inhibitory constant (Ki) on FXIIa of under 200 nM.
For `Cc1ccc(C[C@@H]2C[C@@H](C(=O)NCc3ccc4c(cnn4C)c3)N(C(=O)[C@@H]3NCCC[C@@H]3C(=O)N3C4CCC3COC4)C2)cc1` [Example M05770, (2S,4R)-1-((2R,3S)-3-(3-oxa-8-azabicyclo[3.2.1]octane-8-carbonyl)piperidine-2-carbonyl)-N-((1-methyl-1H-indazol-5-yl)methyl)-4-(4-methylbenzyl)pyrrolidine-2-carboxamide] the same measures were “∘∘∘”, “+++ (fold selectivity values greater than 100)” and 200 to 800 nM.
For `CCN1CCC[C@H](C(=O)N2CCCC2)[C@@H]1C(=O)N1C[C@H](Cc2ccc(C)cc2)C[C@H]1C(=O)NCc1ccc2c(cnn2C)c1` [Example M05772, (2S,4R)-1-((2R,3S)-1-ethyl-3-(pyrrolidine-1-carbonyl)piperidine-2-carbonyl)-N-((1-methyl-1H-indazol-5-yl)methyl)-4-(4-methylbenzyl)pyrrolidine-2-carboxamide] the same measures were “∘∘∘”, “+++ (fold selectivity values greater than 100)” and 200 to 800 nM.
The like results for `Cc1ccc(C[C@@H]2C[C@@H](C(=O)NCc3ccc4c(cnn4C)c3)N(C(=O)[C@@H]3NCCC[C@@H]3C(=O)N3CCCC34CC4)C2)cc1` [Example M05773] were, in that order, “∘∘∘”, “++ (a fold selectivity value of 10 to 100)” and 200 to 800 nM.
Consider `Cc1ccc(C[C@@H]2C[C@@H](C(=O)NCc3ccc4c(cnn4C)c3)N(C(=O)[C@@H]3NCCC[C@@H]3C(=O)N3CCC4(CC3)CC4)C2)cc1` [Example M05775, (2S,4R)-1-((2R,3S)-3-(6-azaspiro[2.5]octane-6-carbonyl)piperidine-2-carbonyl)-N-((1-methyl-1H-indazol-5-yl)methyl)-4-(4-methylbenzyl)pyrrolidine-2-carboxamide], for which, at FXa, the “FXa (human)/FXIIa alpha (human)” value is “∘∘∘”. Moreover, the “Thrombin (human)/FXIIa alpha (human)” value on thrombin was “++ (a fold selectivity value of 10 to 100)”. The compound further yielded an inhibitory constant (Ki) on FXIIa of 800 to 5000 nM.
The like results for `Cc1ccc(C[C@@H]2C[C@@H](C(=O)NCc3ccc4c(cnn4C)c3)N(C(=O)[C@@H]3NCCC[C@@H]3C(=O)N3CC[C@H](F)C3)C2)cc1` [Example M05777, (2S,4R)-1-((2R,3S)-3-((S)-3-fluoropyrrolidine-1-carbonyl)piperidine-2-carbonyl)-N-((1-methyl-1H-indazol-5-yl)methyl)-4-(4-methylbenzyl)pyrrolidine-2-carboxamide] were, in that order, “∘∘∘”, “+++ (fold selectivity values greater than 100)” and 200 to 800 nM.
For `Cc1ccc(C[C@@H]2C[C@@H](C(=O)NCc3ccc4c(cnn4C(F)F)c3)N(C(=O)[C@@H]3NCCC[C@@H]3C(=O)N3CCCC3)C2)cc1` [Example M05778, (2S,4R)-N-((1-(difluoromethyl)-1H-indazol-5-yl)methyl)-4-(4-methylbenzyl)-1-((2R,3S)-3-(pyrrolidine-1-carbonyl)piperidine-2-carbonyl)pyrrolidine-2-carboxamide] the same measures were “∘∘∘”, “+++ (fold selectivity values greater than 100)” and 200 to 800 nM.
The like results for `Cc1ccc(C[C@@H]2C[C@@H](C(=O)NCc3ccc4c(cnn4C)c3)N(C(=O)[C@@H]3NCCC[C@@H]3C(=O)N3CC[C@@H](F)C3)C2)cc1` [Example M05785, (2S,4R)-1-((2R,3S)-3-((R)-3-fluoropyrrolidine-1-carbonyl)piperidine-2-carbonyl)-N-((1-methyl-1H-indazol-5-yl)methyl)-4-(4-methylbenzyl)pyrrolidine-2-carboxamide] were, in that order, “∘∘∘”, “+++ (fold selectivity values greater than 100)” and under 200 nM.
For the compound `Cc1ccc(C[C@@H]2C[C@@H](C(=O)NCc3ccc4c(cnn4C)c3)N(C(=O)[C@@H]3NCCC[C@@H]3C(=O)N3CCC(F)(F)C3)C2)cc1` [Example M05787, (2S,4R)-1-((2R,3S)-3-(3,3-difluoropyrrolidine-1-carbonyl)piperidine-2-carbonyl)-N-((1-methyl-1H-indazol-5-yl)methyl)-4-(4-methylbenzyl)pyrrolidine-2-carboxamide], the “FXa (human)/FXIIa alpha (human)” value at FXa is reported as “∘∘∘”. In addition, the “Thrombin (human)/FXIIa alpha (human)” value at thrombin is “+++ (fold selectivity values greater than 100)”. The compound also registered a Ki on FXIIa of 200 to 800 nM.
The like results for `Cn1ncc2cc(CNC(=O)[C@@H]3C[C@@H](Cc4ccc(C(F)(F)F)cc4)CN3C(=O)[C@@H]3NCCC[C@@H]3C(=O)N3CCCC3)ccc21` [Example M05788, (2S,4R)-N-((1-methyl-1H-indazol-5-yl)methyl)-1-((2R,3S)-3-(pyrrolidine-1-carbonyl)piperidine-2-carbonyl)-4-(4-(trifluoromethyl)benzyl)pyrrolidine-2-carboxamide] were, in that order, “∘∘∘”, “+++ (fold selectivity values greater than 100)” and under 200 nM.
`Cc1ccc(O[C@@H]2C[C@@H](C(=O)NCc3ccc4c(cnn4C)c3)N(C(=O)[C@@H]3NCCC[C@@H]3C(=O)N3CCCC3)C2)cc1` [Example M05798, (2S,4R)-N-[(1-methylindazol-5-yl)methyl]-4-(4-methylphenoxy)-1-[(2R,3S)-3-(pyrrolidine-1-carbonyl)piperidine-2-carbonyl]pyrrolidine-2-carboxamide]: the “FXa (human)/FXIIa alpha (human)” value on FXa is “∘∘∘”. The “Thrombin (human)/FXIIa alpha (human)” value on thrombin is given as “+++ (fold selectivity values greater than 100)”. Also, the Ki on FXIIa fell in the range of 800 to 5000 nM.
For `COc1cc(CNC(=O)[C@@H]2C[C@@H](Cc3ccc(C)cc3)CN2C(=O)[C@@H]2NCCC[C@@H]2C(=O)N2CCCC2)cc2cnn(C)c12` [Example M05799, (2S,4R)-N-((7-methoxy-1-methyl-1H-indazol-5-yl)methyl)-4-(4-methylbenzyl)-1-((2R,3S)-3-(pyrrolidine-1-carbonyl)piperidine-2-carbonyl)pyrrolidine-2-carboxamide] the same measures were “∘∘∘”, “++ (a fold selectivity value of 10 to 100)” and under 200 nM.
